For ten compounds, T/C results are on record in PubChem BioAssay AID334 (DTP/NCI, 2004).

Several values for one entry are separate records, joined by “and”; a condition that tells them apart may be missing. Equal entries are not always repeated. Inconclusive results and toxic doses are left out.

The assay deals with CD2F1 mice, intracerebral P388 leukemia, median survival T/C%. Description: NCI In Vivo Anticancer Drug Screen. Data for tumor model P388 Leukemia (intracerebral) in CD2F1 (CDF1) mice. Particulars: endpoint: median survival time, higher = longer survival. The protocol:
The antitumor activity of compounds was measured in mice bearing transplantable tumors. Survival or tumor size were measured and the results are expressed as the measurement made in the treated group (T) divided by the measurement made in the vehicle treated control group (C). The tumor model used in this assay is P388 Leukemia (intracerebral) in CD2F1 (CDF1) mice

Setting [1] is: dose: 12.5 mg/kg/injection, schedule: Q04DX003 (ip), vehicle: saline.
[2] abbreviates: dose: 25.0 mg/kg/injection, schedule: Q04DX003 (ip), vehicle: saline.

On to `CCCCCC(=O)NC(Cc1ccc(N(CCCl)CCCl)cc1)C(=O)O` (stereo not drawn), for which the T/C (dose: 1.3 mg/kg/injection, schedule: Q03HX008 (ip), vehicle: saline) was 94 % of control; the T/C (dose: 2.6 mg/kg/injection, schedule: Q03HX008 (ip), vehicle: saline) was 105 % of control; the T/C (dose: 5.3 mg/kg/injection, schedule: Q03HX008 (ip), vehicle: saline) is 105 % of control; the T/C (dose: 10.6 mg/kg/injection, schedule: Q03HX008 (ip), vehicle: saline) was 100 % of control; the T/C (dose: 21.2 mg/kg/injection, schedule: Q03HX008 (ip), vehicle: saline) is 115 % of control.
As to `COc1cc([C@@H]2c3cc4c(cc3[C@@H](OC3OC5CO[C@@H](c6cccs6)OC5C(O)C3O)[C@H]3COC(=O)[C@H]23)OCO4)cc(OC)c1O` (stereo partly drawn), the T/C was 108 % of control (dose: 0.25 mg/kg/injection, schedule: Q01DX009 (ip), vehicle: saline); 116 % of control (dose: 0.5 mg/kg/injection, schedule: Q01DX009 (ip), vehicle: saline); 152 % of control (dose: 2.0 mg/kg/injection, schedule: Q01DX009 (ip), vehicle: saline); 119 % of control (dose: 4.0 mg/kg/injection, schedule: Q01DX009 (ip), vehicle: saline).
Consider `CN=S(=O)(OCCCCCOS(=O)(=NC)c1ccccc1)c1ccccc1` (stereo not drawn), for which the T/C is 107 % of control (dose: 6.25 mg/kg/injection, schedule: Q01DX009 (ip), vehicle: saline with Tween-80); 100 % of control (dose: 12.5 mg/kg/injection, schedule: Q01DX009 (ip), vehicle: saline with Tween-80); 101 % of control (dose: 25.0 mg/kg/injection, schedule: Q01DX009 (ip), vehicle: saline with Tween-80); 102 % of control (dose: 50.0 mg/kg/injection, schedule: Q01DX009 (ip), vehicle: saline with Tween-80); 102 % of control (dose: 100.0 mg/kg/injection, schedule: Q01DX009 (ip), vehicle: saline with Tween-80).
As for `CCCCCCCCCCCCCCCCCC(=O)NC(CC(=O)OCCCCCC)c1ccc(N(CCCl)CCCl)cc1` (stereo not drawn), the T/C (dose: 2.15 mg/kg/injection, schedule: Q03HX008 (ip), vehicle: saline) is 105 % of control; the T/C (dose: 4.3 mg/kg/injection, schedule: Q03HX008 (ip), vehicle: saline) was 105 % of control; the T/C (dose: 8.6 mg/kg/injection, schedule: Q03HX008 (ip), vehicle: saline) is 105 % of control; the T/C (dose: 69.0 mg/kg/injection, schedule: Q03HX008 (ip), vehicle: saline) is 152 % of control; the T/C (dose: 275.0 mg/kg/injection, schedule: Q03HX008 (ip), vehicle: saline) was 121 % of control.
Consider `COc1cccc2c1C(=O)c1c(O)c3c(c(O)c1C2=O)CC(O)(C(=O)CO)CC3OC1CC(N)C(O)C(C)O1` (stereo not drawn), for which the T/C is 107 % of control (dose: 0.78 mg/kg/injection, schedule: Q04DX003 (ip), vehicle: saline); 98 % of control (dose: 1.56 mg/kg/injection, schedule: Q04DX003 (ip), vehicle: saline); 106 % of control (dose: 3.12 mg/kg/injection, schedule: Q04DX003 (ip), vehicle: saline); 100 % of control (dose: 3.75 mg/kg/injection, schedule: Q04DX003 (ip), vehicle: clinical formulation); 100 % of control (dose: 3.75 mg/kg/injection, schedule: Q04DX003 (iv), vehicle: clinical formulation); 97 % of control (dose: 6.25 mg/kg/injection, schedule: Q04DX003 (ip), vehicle: saline). Moreover, the T/C (dose: 7.5 mg/kg/injection, schedule: Q04DX003 (ip), vehicle: clinical formulation) was 103 % of control; the T/C (dose: 7.5 mg/kg/injection, schedule: Q04DX003 (iv), vehicle: clinical formulation) is 99 % of control; the T/C under setting [1] is 103 % of control; the T/C (dose: 15.0 mg/kg/injection, schedule: Q04DX003 (ip), vehicle: clinical formulation) is 100 % of control; the T/C (dose: 15.0 mg/kg/injection, schedule: Q04DX003 (iv), vehicle: clinical formulation) was 106 % of control; the T/C under setting [2] is 91 % of control. Moreover, the T/C (dose: 30.0 mg/kg/injection, schedule: Q04DX003 (iv), vehicle: clinical formulation) was 90 % of control.
Turning to `CC1(C)N=C(N)N=C(N)N1c1ccc(OCCOc2ccc(S(=O)(=O)F)cc2)c(Cl)c1`, the T/C was 116 % of control under setting [1]; 100 % of control under setting [2]; 94 % of control (dose: 50.0 mg/kg/injection, schedule: Q04DX003 (ip), vehicle: saline).
Take `COS(C)(=O)=O`: the T/C reads like this: (dose: 32.0 mg/kg/injection, schedule: Q01DX005 (ip), vehicle: saline) 107 % of control and 108 % of control; (dose: 64.0 mg/kg/injection, schedule: Q01DX005 (ip), vehicle: saline) 97 % of control and 106 % of control; (dose: 128.0 mg/kg/injection, schedule: Q01DX005 (ip), vehicle: saline) 104 % of control and 105 % of control.
In the case of `CN(C)CC(=O)c1ccc(O)c(O)c1`, the T/C is, setting by setting: (dose: 100.0 mg/kg/injection, schedule: Q01DX005 (ip), vehicle: saline) 103 % of control; (dose: 100.0 mg/kg/injection, schedule: Q01DX005 (ip), vehicle: suspension in saline) 93 % of control; (dose: 200.0 mg/kg/injection, schedule: Q01DX005 (ip), vehicle: saline) 108 % of control; (dose: 200.0 mg/kg/injection, schedule: Q01DX005 (ip), vehicle: suspension in saline) 104 % of control; (dose: 400.0 mg/kg/injection, schedule: Q01DX005 (ip), vehicle: saline) 104 % of control; (dose: 400.0 mg/kg/injection, schedule: Q01DX005 (ip), vehicle: suspension in saline) 107 % of control.
Consider `COc1cc(NCc2ccc3nc(N)nc(N)c3c2C)cc(OC)c1OC` (tested in a mixture with another compound), for which the T/C is 100 % of control (dose: 7.5 mg/kg/injection, schedule: Q01DX009 (ip), vehicle: water); 115 % of control (dose: 15.0 mg/kg/injection, schedule: Q01DX009 (ip), vehicle: water); 117 % of control (dose: 30.0 mg/kg/injection, schedule: Q01DX009 (ip), vehicle: water).
Turning to `O=P1(NCCCl)OCCCN1CCCl` (stereo not drawn), under “dose: 538.0 mg/kg/injection, schedule: Q01DX001 (ip), vehicle: saline”, the T/C was 153 % of control.
